# Results published in article PMC7377474, “Preclinical characterization of CPL302-253, a selective inhibitor of PI3Kδ, as the candidate for the inhalatory treatment and prevention of Asthma” (PLoS ONE, 2020).
# “And” between values parts separate entries of the source, which are not always exact repeats. Identical values can stand only once.
# Experiments:
# [1] = test system: GPCR, transporters, ion channels, nuclear receptors, kinases and non-kinase enzymes; assay: SafetyScan44 panel, overall; format: cell-based; conditions: 10 μM; negative if not exceeding 70% of the control
# Procedure: SafetyScan44 assay was performed by DiscoverX according to service provider’s protocol.
# [2] = test system: HDM induced asthma mouse model; assay: HDM-steroid insensitive asthma mice model; conditions: for IL-33 concentration in BAL (Fig 7B), single animals / eosinophils number in BAL (Fig 7A), single animals: day 15
# [3] = test system: B cells; assay: B lymphocyte activation assay; conditions: for CD25 expression (Fig 3A), single replicates / ki-67 expression (Fig 3B), single replicates: activated B cells
# Procedure: B cells were isolated from human frozen PBMCs using EasySep Human CD19 Positive Isolation Kit (StemCell Technologies) according to manufacturers’ protocol. The cells were seeded in AIM V medium (Gibco). […] After 72 hours of culture the cells were stained with antibody againstCD25 (BC96, eBioscience) and ki-67 (Clone 20Raj1, Invitrogen) and analysed on FACSCalibur.
# [4] = test system: human primary cell cultures and co-cultures; format: cell-based
# Procedure: BioMap Profiling study was performed by DiscovereX according to service provider’s protocol. In brief cultures or co-cultures of human primary cells were treated with sets of stimulators specific for cell subsets. […] The expression of biomarkers specific for each system was measured by ELISA and other techniques. The results are shown as log-transformed ratio of the biomarker readouts for the drug-treated sample to vehicle controls. The grey area parallel to the x-axis indicates the 95% significance region calculated based on historical vehicle controls. […]
# [5] = test system: A549 cells co-cultured with CD8 T cells; assay: A549 CD8 T cell co-culture, IL-33 expression; format: cell-based, human; conditions: 1 μM, 72 h
# Procedure: A549 cells were seeded into 48-well plate. CD8 T cells were isolated from frozen human PBMC using EasySep Human CD8 T cell Isolation Kit (StemCell Technologies) according to manufacturer’s protocol. A549 were co-cultured with CD8 T cells at 1 to 5 ratios for 72 h. In some cultures, CD8 cells were activated with Human T Cell Activation/Expansion Kit (Miltenyibiotec) according to manufacturer’s protocol. After 72h CD8 cells were removed by rinsing with PBS. Adherent A549 cells were suspended in 100 μl RIPA and IL-33 was assessed in cell lysates using IL-33 Human Uncoated ELISA Kit (Invitrogen). Due to high variability in cell activation the data were normalized (measure for each experimental condition was divided by average of measures for all experimental conditions in the experiment).
# [6] = test system: co-culture of dermal fibroblasts and keratinocytes; assay: BioMAP profiling, KF3CT system; format: cell-based, human
# Procedure: BioMap Profiling study was performed by DiscovereX according to service provider’s protocol. In brief cultures or co-cultures of human primary cells were treated with sets of stimulators specific for cell subsets. […] The assays included positive and negative controls as well as vehicle control. The expression of biomarkers specific for each system was measured by ELISA and other techniques.
# [7] = test system: CD8 T cells; assay: CD8 T cell activation, IFNγ production; format: cell-based, human; conditions: for IFNγ release (Fig 3C), single replicates: activated CD8 T cells, 48 h
# Procedure: CD8 T cells were isolated from human frozen PBMC using EasySep Human CD8 T cell Isolation Kit (StemCell Technologies) according to manufacturer’s protocol and cultured in AIM V medium (Gibco). To cell culture different concentrations of CPL302-253 were added. The cells were activated with Human T Cell Activation/Expansion Kit (Miltenyibiotec) according to manufacturer’s protocol. IFNγ production was measured after 48 h of activation in culture supernatants using IFNγ Human Uncoated ELISA Kit (Invitrogen) according to manufacturer’s protocol.
# [8] = molecular target: PI3Kα (Homo sapiens, UniProt P42336); assay: KINOMEScan competitive binding assay, Kd; set-up: purchased Discoverex (KINOMEscan service)
# Sequence of PI3Kα (P42336 whole entry): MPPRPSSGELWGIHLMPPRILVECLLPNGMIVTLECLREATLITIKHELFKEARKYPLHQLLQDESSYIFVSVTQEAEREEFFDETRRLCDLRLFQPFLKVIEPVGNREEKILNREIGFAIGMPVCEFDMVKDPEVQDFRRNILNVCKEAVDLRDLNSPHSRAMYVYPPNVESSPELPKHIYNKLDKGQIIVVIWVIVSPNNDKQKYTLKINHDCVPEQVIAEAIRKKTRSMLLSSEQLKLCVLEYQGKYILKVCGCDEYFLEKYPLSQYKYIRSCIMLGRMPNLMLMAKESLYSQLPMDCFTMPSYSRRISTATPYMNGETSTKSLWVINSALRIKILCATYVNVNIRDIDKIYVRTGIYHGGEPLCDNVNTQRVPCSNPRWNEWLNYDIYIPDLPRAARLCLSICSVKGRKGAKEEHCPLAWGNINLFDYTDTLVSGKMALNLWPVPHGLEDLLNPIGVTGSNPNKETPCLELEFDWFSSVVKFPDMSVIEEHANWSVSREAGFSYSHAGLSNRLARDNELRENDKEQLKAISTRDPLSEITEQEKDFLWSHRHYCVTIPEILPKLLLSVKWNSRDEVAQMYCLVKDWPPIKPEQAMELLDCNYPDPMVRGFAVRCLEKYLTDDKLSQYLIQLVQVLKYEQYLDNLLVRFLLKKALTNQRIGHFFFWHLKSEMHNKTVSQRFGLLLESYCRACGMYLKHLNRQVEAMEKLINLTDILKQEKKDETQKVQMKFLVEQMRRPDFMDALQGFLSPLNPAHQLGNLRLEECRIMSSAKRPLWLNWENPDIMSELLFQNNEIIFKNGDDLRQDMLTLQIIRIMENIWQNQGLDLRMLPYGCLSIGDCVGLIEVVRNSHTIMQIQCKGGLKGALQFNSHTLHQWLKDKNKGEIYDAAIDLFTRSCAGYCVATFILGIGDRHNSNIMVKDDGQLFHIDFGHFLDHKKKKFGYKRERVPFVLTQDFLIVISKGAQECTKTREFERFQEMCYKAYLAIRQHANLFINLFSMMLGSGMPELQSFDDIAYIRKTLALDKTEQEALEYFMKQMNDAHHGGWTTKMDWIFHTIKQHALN
# Procedure: (§1) The inhibitor-kinase binding affinity was assessed in KINOMEscan™ assay (Discoverex) according to service provider’s protocol. In brief, in this binding assay the studied compound in solution is incubated with DNA-tagged kinase and kinase active-site directed ligand bound to the beads. The compound competes for binding to kinase with the immobilized ligand. After incubation beads are removed from the solution and kinase bound to ligand is quantified by qPCR. The strength of compound binding is determined based on its ability to block kinase-ligand binding. 11-point 3-fold serial dilution of CPL302-253 was used in order to determine its binding constants (Kd) against different isotypes of class I PI3K. The single concentration of CPL302-253 was used in order to determine its specificity in abroad panel of 468 human kinases. The measure of compounds affinity to each kinase in the panel was the percentage of kinase activity inhibition by tested ligand in comparison to the control.
# [9] = molecular target: PI3Kγ (Homo sapiens, UniProt P48736); assay: KINOMEScan competitive binding assay, Kd; set-up: purchased Discoverex (KINOMEscan service)
# Sequence of PI3Kγ (P48736 whole entry): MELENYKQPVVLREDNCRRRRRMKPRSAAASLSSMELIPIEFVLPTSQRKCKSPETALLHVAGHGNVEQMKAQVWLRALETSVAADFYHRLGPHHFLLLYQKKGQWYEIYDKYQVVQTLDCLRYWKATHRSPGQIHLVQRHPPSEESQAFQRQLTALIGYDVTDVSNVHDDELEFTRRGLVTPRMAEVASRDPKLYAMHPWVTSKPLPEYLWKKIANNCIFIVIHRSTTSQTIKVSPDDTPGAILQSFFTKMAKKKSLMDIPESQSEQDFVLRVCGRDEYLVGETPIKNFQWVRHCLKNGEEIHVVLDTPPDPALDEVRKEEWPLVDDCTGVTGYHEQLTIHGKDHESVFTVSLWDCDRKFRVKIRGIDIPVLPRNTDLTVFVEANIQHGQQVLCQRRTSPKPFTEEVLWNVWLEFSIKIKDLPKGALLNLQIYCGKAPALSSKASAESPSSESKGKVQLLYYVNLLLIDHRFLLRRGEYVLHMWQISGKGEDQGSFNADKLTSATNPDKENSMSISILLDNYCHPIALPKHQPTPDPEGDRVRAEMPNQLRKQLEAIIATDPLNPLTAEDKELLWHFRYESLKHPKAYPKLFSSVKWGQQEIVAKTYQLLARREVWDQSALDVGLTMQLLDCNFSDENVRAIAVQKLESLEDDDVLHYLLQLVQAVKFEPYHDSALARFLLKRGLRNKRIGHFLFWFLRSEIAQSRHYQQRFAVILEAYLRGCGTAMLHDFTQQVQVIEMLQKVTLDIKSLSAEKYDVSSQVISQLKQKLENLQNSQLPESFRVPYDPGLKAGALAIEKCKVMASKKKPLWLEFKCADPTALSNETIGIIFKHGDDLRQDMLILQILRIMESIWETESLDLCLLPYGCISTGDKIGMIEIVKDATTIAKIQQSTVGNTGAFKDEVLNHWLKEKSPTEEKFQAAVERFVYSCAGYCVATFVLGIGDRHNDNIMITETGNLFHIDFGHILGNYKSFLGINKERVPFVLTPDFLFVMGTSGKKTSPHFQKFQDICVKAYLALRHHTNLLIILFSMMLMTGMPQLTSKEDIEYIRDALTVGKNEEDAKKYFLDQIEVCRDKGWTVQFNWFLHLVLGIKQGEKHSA
# Procedure: as §1
# [10] = molecular target: PI3Kβ (Homo sapiens, UniProt P42338); assay: KINOMEScan competitive binding assay, Kd; set-up: purchased Discoverex (KINOMEscan service)
# Sequence of PI3Kβ (P42338 whole entry): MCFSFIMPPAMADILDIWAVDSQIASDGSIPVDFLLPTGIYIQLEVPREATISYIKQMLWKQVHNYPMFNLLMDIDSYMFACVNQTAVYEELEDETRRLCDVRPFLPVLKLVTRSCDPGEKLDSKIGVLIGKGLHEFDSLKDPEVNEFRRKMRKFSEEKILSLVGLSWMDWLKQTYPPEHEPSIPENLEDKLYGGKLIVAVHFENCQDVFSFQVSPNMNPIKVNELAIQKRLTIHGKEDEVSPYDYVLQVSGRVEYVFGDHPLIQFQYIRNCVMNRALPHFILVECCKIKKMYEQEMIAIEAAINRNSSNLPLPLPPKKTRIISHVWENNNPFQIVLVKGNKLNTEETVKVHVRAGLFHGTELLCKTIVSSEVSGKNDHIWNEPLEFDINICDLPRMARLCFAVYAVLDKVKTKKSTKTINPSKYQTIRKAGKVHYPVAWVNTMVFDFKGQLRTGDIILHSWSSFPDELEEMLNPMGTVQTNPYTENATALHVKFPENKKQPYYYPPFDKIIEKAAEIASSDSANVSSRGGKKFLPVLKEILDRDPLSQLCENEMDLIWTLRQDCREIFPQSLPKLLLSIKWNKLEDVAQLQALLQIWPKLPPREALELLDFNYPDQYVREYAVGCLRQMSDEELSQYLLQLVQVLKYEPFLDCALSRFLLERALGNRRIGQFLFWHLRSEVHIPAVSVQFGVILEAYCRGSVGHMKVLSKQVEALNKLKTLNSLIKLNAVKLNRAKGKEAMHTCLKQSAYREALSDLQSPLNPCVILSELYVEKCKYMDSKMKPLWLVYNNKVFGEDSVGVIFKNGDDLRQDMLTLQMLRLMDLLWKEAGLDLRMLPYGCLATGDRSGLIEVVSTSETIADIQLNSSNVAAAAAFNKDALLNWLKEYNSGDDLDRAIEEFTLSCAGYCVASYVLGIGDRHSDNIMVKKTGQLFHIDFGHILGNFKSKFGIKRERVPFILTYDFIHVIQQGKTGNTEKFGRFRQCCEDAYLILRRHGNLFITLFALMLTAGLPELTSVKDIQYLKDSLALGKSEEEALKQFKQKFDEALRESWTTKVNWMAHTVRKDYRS
# Procedure: as §1
# [11] = HDM + 0.5 mg/kg i.n., 0.5 mg/kg
# [12] = i.n. on day 12, 13 and 14, HDM challenge day 14, BALF day 15
# [13] = 72 h, concentration 1 (unit not given)
# [14] = 72 h, concentration 10 (unit not given)
# [15] = 72 h, concentration 100 (unit not given)
# [16] = 72 h, concentration 1000 (unit not given)
# [17] = 72 h, concentration 10000 (unit not given)
structure (smiles),measurement,setting,value
CC(C)(C)N1CCN(Cc2cc3nc(-c4cncc5[nH]ccc45)cc(N4CCOCC4)n3n2)CC1 [CPL302-253],inhibition or activation of the studied pathways in SafetyScan44,[1],neither inhibits nor activates any of the studied pathways
same,"IL-33 concentration in BAL (Fig 7B), single animals",[2]; [11],1.6 and -0.3 and -1.1 and -0.8 and -4.4 and 3 and 4.4 and -0.4 and -4.7 and 1.7
same,"eosinophils number in BAL (Fig 7A), single animals",[2]; [11],32736 and 8169.96 and 5712.6 and 6975 and 20671.5 and 48073 and 6811.27 and 9495.5 and 84434.2 and 46844.4
same,"IL-33 concentration in BAL (Fig 7B), single animals","[2]; HDM + 5 mg/kg i.n., 5 mg/kg",0.5 and 3 and -2.8 and 10.8 and 6.1 and 2.3 and 1 and 2.6 and 9.8
same,"eosinophils number in BAL (Fig 7A), single animals","[2]; HDM + 5 mg/kg i.n., 5 mg/kg",17665.4 and 6769.78 and 17936.5 and 52878.7 and 44238.8 and 8082.51 and 80102.2 and 24189.9 and 38935.1 and 17565.7
same,IL-33 production in the lungs,[2]; [12],effectively blocked
same,eosinophil influx to the lungs,[2]; [12],effectively blocked
same,B cell proliferation (ki-67 expression),"[3]; B cells activated with ODN2006 and αIgM F(ab')2, 72 h",blocked also B cell proliferation
same,concentration at which inhibition of CD25 expression was observed,"[3]; B cells after BCR and TLR stimulation, 72 h",10 nM
same,"CD25 expression (Fig 3A), single replicates",[3]; [13],68 and 59 and 72 and 57
same,"ki-67 expression (Fig 3B), single replicates",[3]; [13],46 and 43.4 and 77
same,"CD25 expression (Fig 3A), single replicates",[3]; [14],52 and 60 and 66 and 49
same,"ki-67 expression (Fig 3B), single replicates",[3]; [14],48 and 23.5 and 54
same,"CD25 expression (Fig 3A), single replicates",[3]; [15],39 and 31 and 52 and 64 and 48
same,"ki-67 expression (Fig 3B), single replicates",[3]; [15],29 and 16.5 and 35
same,"CD25 expression (Fig 3A), single replicates",[3]; [16],9 and 22 and 24 and 38 and 20
same,"ki-67 expression (Fig 3B), single replicates",[3]; [16],23 and 2.4 and 24
same,"CD25 expression (Fig 3A), single replicates",[3]; [17],4 and 3 and 11 and 6
same,"ki-67 expression (Fig 3B), single replicates",[3]; [17],5 and 1
same,cytotoxic effects in BioMap culture systems,[4],no cytotoxic effects observed
same,impact on other studied BioMAP systems,"[4]; systems other than BT, except PAI-1 in KF3CT",no impact
same,"IL-33 expression, normalized (Fig 3D), single replicates","[5]; A549 CD8 A (activated CD8), divided by average of all conditions",0.4059 and 0.7122 and 0.4707
same,IL-33 expression in co-cultures,[5]; A549 with activated CD8 cells,strong inhibition of IL-33 expression
same,concentration inducing decrease of Plasminogen Activator Inhibitor-1 expression,[6],≥ 150 nM
same,"decrease of Plasminogen Activator Inhibitor-1 expression, effect size",[6],lower than 0.2 log10
same,concentration at which IFNγ production was blocked,[7]; CD8 T cells after TCR engagement,1 nM
same,"IFNγ release (Fig 3C), single replicates",[7]; concentration 1 (unit not given),418.61 and 469.87 and 245.35
same,"IFNγ release (Fig 3C), single replicates",[7]; concentration 10 (unit not given),400.4 and 276.31 and 203.71
same,"IFNγ release (Fig 3C), single replicates",[7]; concentration 100 (unit not given),219.02 and 101.31 and 52.94
same,"IFNγ release (Fig 3C), single replicates","[7]; concentration 10000, first column (unit not printed)",55.96 and 7.95 and 23.25
same,"IFNγ release (Fig 3C), single replicates","[7]; concentration 10000, second column (unit not printed)",155.93 and 70.92 and 72.2
same,Kd,[8],1900 nM
same,Kd,[9],4.8 µM
same,Kd,[10],390 nM
